# Measurements published in patent US20260250318A1, “COMPOSITIONS AND METHODS FOR CROSSING THE BLOOD BRAIN BARRIER” (VOYAGER THERAPEUTICS, INC., priority 2022, published 2026).
# Key:
# [1] = tested on: brains, heart, liver, muscle, and DRG of the NHPs; experiment: Maturation of TTM-001 and TTM-002 capsids, NGS enrichment in NHP tissues; type: in vivo; details: relative to AAV9 control
# How it was run: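 Variants carry mutations within and flanking the loop IV peptide insert: positions 450–466 were triplet-randomized, while positions 449–466 received low-frequency point mutations. The combined pool went into two NHPs, and each peptide was scored by NGS enrichment ratio against AAV9.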
# brain = experiment: Matured TTM-001 and TTM-002 variants, NGS enrichment in mouse brain; type: in vivo, mice; details: relative to AAV9 control
# [2] = NGS fold-enrichment of RNA, NHP brain
# [3] = NGS fold-enrichment, DRG of NHPs
# [4] = NGS fold-enrichment, NHP liver DNA
# [5] = NGS fold-enrichment, NHP liver RNA
# [6] = NGS fold-enrichment, NHP muscle
# [7] = NGS fold-enrichment, RNA, brain of NHPs
# [8] = NGS fold-enrichment, heart of NHPs
# [9] = NGS fold-enrichment, liver DNA of NHPs
# [10] = NGS fold-enrichment, liver RNA of NHPs
# [11] = NGS fold-enrichment, muscle of NHPs
# [12] = NGS fold-enrichment, brain of mice
# [13] = NGS fold-enrichment, mouse brain
Sequence,"Fold Enrichment relative to AAV9, Brain (NHP) [1, 2]","Fold Enrichment relative to AAV9, DRG (NHP) [1, 3]","Fold Enrichment relative to AAV9, DRG (NHP) ([1]; NGS fold-enrichment, NHP DRG)","Fold Enrichment relative to AAV9, Heart (NHP) ([1]; NGS fold-enrichment, NHP heart)","Fold Enrichment relative to AAV9, Liver DNA (NHP) [1, 4]","Fold Enrichment relative to AAV9, Liver RNA (NHP) [1, 5]","Fold Enrichment relative to AAV9, Muscle (NHP) [1, 6]","Fold Enrichment relative to AAV9, Brain (NHP) [1, 7]","Fold Enrichment relative to AAV9, Heart (NHP) [1, 8]","Fold Enrichment relative to AAV9, Liver DNA (NHP) [1, 9]","Fold Enrichment relative to AAV9, Liver RNA (NHP) [1, 10]","Fold Enrichment relative to AAV9, Muscle (NHP) [1, 11]","Fold Enrichment relative to AAV9, Brain (Mouse) (brain; [12])","Fold Enrichment relative to AAV9, Brain (Mouse) (brain; [13])",further results
KTERISGSPHSKAQNQQT,103.692 fold,0.000 fold,0.000 fold,0.000 fold,0.370 fold,0.062 fold,0.000 fold,103.692 fold,0.000 fold,0.370 fold,0.062 fold,0.000 fold,89.637 fold,89.637 fold,–
KTERLSGSPHSKAQNQQT,95.857 fold,0.000 fold,0.000 fold,0.004 fold,0.260 fold,0.126 fold,0.005 fold,95.857 fold,0.004 fold,0.260 fold,0.126 fold,0.005 fold,102.372 fold,102.372 fold,–
KTERMSGSPHSKAQNQQT,–,0.000 fold,–,–,–,–,–,74.910 fold,0.000 fold,0.151 fold,0.100 fold,0.000 fold,122.812 fold,–,–
KTERNSGSPHSKAQNQQT,99.892 fold,0.000 fold,0.000 fold,0.000 fold,0.107 fold,0.000 fold,0.000 fold,99.892 fold,0.000 fold,0.107 fold,0.000 fold,0.000 fold,87.392 fold,87.392 fold,–
KTERPSGSPHSKAQNQQT,75.669 fold,0.000 fold,0.000 fold,0.029 fold,0.156 fold,0.000 fold,0.000 fold,75.669 fold,0.029 fold,0.156 fold,0.000 fold,0.000 fold,73.894 fold,73.894 fold,–
KTERSSGSPHSKAQNQQT,–,0.000 fold,–,–,–,–,–,74.853 fold,0.071 fold,0.056 fold,1.036 fold,0.000 fold,125.538 fold,–,–
KTERTSGSPHSKAQNQQT,112.957 fold,0.000 fold,0.000 fold,0.009 fold,0.207 fold,1.128 fold,0.000 fold,112.957 fold,0.009 fold,0.207 fold,1.128 fold,0.000 fold,117.374 fold,117.374 fold,–
KTERVSGSPHSKAQNQQT,96.943 fold,0.000 fold,0.000 fold,0.000 fold,0.144 fold,0.000 fold,0.000 fold,96.943 fold,0.000 fold,0.144 fold,0.000 fold,0.000 fold,135.438 fold,135.438 fold,"Fold Enrichment relative to AAV9, Brain (NHP) ([1]; NGS fold-enrichment of matured AAV capsid variants, NHP brain, RNA): 96.943 fold; Fold Enrichment relative to AAV9, DRG (NHP) ([1]; NHP DRG): 0.000 fold; Fold Enrichment relative to AAV9, Heart (NHP) ([1]; NHP heart): 0.000 fold; Fold Enrichment relative to AAV9, Liver DNA (NHP) ([1]; NHP liver, DNA): 0.144 fold; Fold Enrichment relative to AAV9, Liver RNA (NHP) ([1]; NHP liver, RNA): 0.000 fold; Fold Enrichment relative to AAV9, Muscle (NHP) ([1]; NHP muscle): 0.000 fold; Fold Enrichment relative to AAV9, Brain (Mouse) (brain; mouse brain): 135.438 fold"
KTESAHDSPHKSGQNQQT,80.810 fold,–,0.000 fold,0.039 fold,0.000 fold,0.000 fold,0.000 fold,–,–,–,–,–,–,13.338 fold,–
KTESASGSPHSKAQNQQT,–,0.000 fold,–,–,–,–,–,68.651 fold,0.000 fold,0.084 fold,0.274 fold,0.000 fold,80.500 fold,–,–
KTESGHDSPHKSGQNQQT,86.513 fold,–,0.000 fold,7.414 fold,0.038 fold,0.000 fold,0.000 fold,–,–,–,–,–,–,13.163 fold,–
KTESHSGSPHSKAQNQQT,–,0.000 fold,–,–,–,–,–,61.947 fold,0.000 fold,0.106 fold,1.480 fold,0.000 fold,52.506 fold,–,–
KTESRHDSPHKSGQNQQT,81.766 fold,–,0.000 fold,0.011 fold,0.036 fold,0.052 fold,0.000 fold,–,–,–,–,–,–,6.975 fold,–
KTESTSGSPHSKAQNQQT,–,0.000 fold,–,–,–,–,–,66.649 fold,0.009 fold,0.176 fold,1.688 fold,0.000 fold,95.861 fold,–,–
KTESWSGSPHSKAQNQQT,–,0.000 fold,–,–,–,–,–,69.144 fold,0.000 fold,0.019 fold,0.000 fold,0.000 fold,67.699 fold,–,–
KTETHSGSPHSKAQNQQT,77.974 fold,0.000 fold,0.000 fold,0.067 fold,0.512 fold,0.000 fold,0.000 fold,77.974 fold,0.067 fold,0.512 fold,0.000 fold,0.000 fold,57.287 fold,57.287 fold,–
